Holding throughout (assay type): cell-based
The subject of experiment [1] is neurons acutely dissociated from mouse midbrain substantia nigra pars reticulata. Nature of the experiment: Application of fluorescent sugar derivatives to acutely dissociated normal neurons (confocal imaging of uptake). Conditions: for increase in fluorescence intensity in the neuron before and after administration: 3 minutes, comparative compounds. The procedure:
This was conducted according to a method described in WO 2010/16587.
Living neurons were acutely dissociated from mouse midbrain substantia nigra pars reticulata, and to which a mixed solution containing 100 μM of 2-PBDG and 20 μM of 2-TRLG was administered at 37° C. for 5 minutes. FIGS. 1A to C represent confocal microscopic images taken immediately before this. A is a fluorescence image in blue wavelength region (Blue channel, wavelength range: 415-580 nm). The position of cells is recognized by autofluorescence. The fluorescence signal intensity is represented by pseudocolor. B is a fluorescence image in red wavelength region (Red channel, 580-740 nm). A and B were obtained both by simultaneous excitation using 405 nm Blue diode laser at an intensity of 60%, wherein photomultipliers (PMT) 1 and 2 were used respectively, and the detection sensitivity of PMT2 was raised higher than PMT1 so that the presence or absence of invasion of 2-TRLG can be detected in a sensitive manner. C is a view in which the bright field image is overlaid on the fluorescence images of A and B.
An experiment was conducted in the same manner as in Example 2.
FIGS. 2A to C represent confocal microscopic images immediately before administration of a mixed solution containing 100 μM of 2-PBLG and 20 μM of 2-TRLG at 37° C. to acutely dissociated neurons of mouse midbrain substantia nigra pars reticulata for 5 minutes.
FIG. 3 represents confocal microscopic images before and after administration of a mixed solution containing 100 μM of 2-HCDG and 20 μM of 2-TRLG at 37° C. for 3 minutes to neurons acutely dissociated from mouse midbrain substantia nigra pars reticulata. A and B are fluorescence images acquired before administration in Blue channel (415-580 nm) and Red channel (580-740 nm), respectively. The excitation wavelength is 405 nm. C is an image of differential interference (Differential Interference contrast, DIC). D is an overlay of the above-described images. E to H are the same as A to D, excepting that E to H are images acquired 4 minutes after initiation of washout of the fluorescence tracer solution after administration of the 2-HCDG+2-TRLG fluorescence tracer solution at 37° C. for 3 minutes. […] Since invasion of 2-TRLG into a cell is not observed, the plasma membrane of the neuron is thought to be maintained intactly.
Since the optimal excitation wavelength was as very low as 320 nm in this experiment, an image was acquired by Retiga-2000R CCD camera manufactured by Q-imaging via a custom-order filter constituted of an excitation filter (320 nm) (half width: 40 nm), a fluorescence filter (435 nm) (half width: 40 nm) and a dichroic mirror (409 nm), by a xenon lamp, using Nikon Ti-E real time deconvolution microscope.

The subject of experiment [2] is tumor cell cluster composed of mouse insulinoma cells (MIN6). Nature of the experiment: Imaging of tumor cell cluster composed of MIN6 cells (real time laser scanning confocal microscope). Conditions: mixed solution 100 μM 2-PBLG, 100 μM 2-NBDLG, 20 μM 2-TRLG; MIN6 cluster day 13. How it is done: A culture solution prepared by suspending MIN6 cells at a proportion of 10×10^4 cells/mL was dropped in an amount of 10 μL on a glass cover slip, then, allowed to adhere to the glass surface, and 3 mL of the culture solution was added and cultured. The half quantity of the culture solution was changed every three days.
Cryopreserved MIN6 cells (cells donated from Professor Miyazaki Junichi of Osaka University and cultured 5 to 8 passages) were subjected to culture according to an ordinary method, and cultured 7 to 9 passages which were used in experiments. The half amount of the culture solution was changed every two days.
NaCl 120.0 mM, KCl 4.75 mM, KH2 PO4 1.19 mM, MgSO4.7H2O 1.19 mM, CaCl2.2H2O 1 mM, NaHCO3 5.02 mM, D-Glucose 5.6 mM, HEPES 10 mM (adjusted to pH 7.35 with 1M NaOH). For inhibiting entrance and elimination of fluorescently labeled glucose via a gap junction/hemichannel, 0.1 mM Carbenoxolone (SIGMA #C4790) was added. The HEPES solution for image acquisition was used as a solution for preparing a 2-PBLG solution and as a solution for preparing a 2-PBLG/2-TRLG solution and 2-PBLG/2-NBDLG/2-TRLG solution.
A glass cover slip wherein MIN6 cells had been cultured was transferred into a HEPES solution for image acquisition in a perfusion chamber set on a universal stage (Leica 11600234) on a confocal laser scanning microscope (TCS SP5 available from Leica), and adhered gently and tightly to the glass surface at the bottom of the chamber. […] Further, there is an excellent effect that in the space sandwiched by the metal guides, the perfusion solution flows smoothly as a laminar flow and quick solution exchange is possible.
A perfusion solution feeding system is equipped with one 60 mL cylinder for a control solution and five 10 mL cylinders for agent feeding, which can be switched as needed by a magnetic valve to allow perfusion. In experiments according to the present invention, a 5.6 mM glucose-containing HEPES solution for image acquisition was administered using the 60 mL cylinder and a mixed solution of 2-PBLG/2-NBDLG/2-TRLG, a mixed solution of 2-PBDG/2-TRLG, or a mixed solution of 2-PBLG/2-TRLG was administered using one of the five 10 mL cylinders. As described below, to avoid generation of bubbles in the perfusion chamber, both the solutions were heated beforehand, combined in one tube before being introduced into the perfusion chamber, the flow rate thereof being controlled by a flow rate controller, then, heated again by an inline heater and fed to the perfusion chamber on the confocal microscope.
A laser scan confocal microscope (manufactured by Leica, TCS-SP5 system, microscope body is DMI6000 CS trino electromotive inverted microscope) was used in conventional mode. Regarding laser used, a 405 nm diode laser was used for excitation of 2-PBLG and 2-PBDG, excitation of a mixed solution of 2-PBLG (or 2-PBDG) and 2-TRLG with a single light source, or live staining of nucleus by DAPI. The irradiation intensity was appropriately adjusted in accordance with the fluorescent pigment used so as to obtain sufficient observation intensity by an acoustic optical polarization element (Acoustic Optical Tunable Filter, AOTF). 2-NBDLG and 2-TRLG were excited by 488 nm Argon laser. The scan speed was 200 Hz or 400 Hz.
In fluorescence detection, a photomultiplier detector (PMT) 1 was used for detection of blue fluorescence by 2-PBDG or 2-PBLG and images were acquired in a wavelength detection range set at 415-580 nm in the case of detection of bicolor of 2-PBLG/2-TRLG and in a wavelength detection range set at 415-500 nm in the case of detection of tricolor of 2-PBLG/2-NBDLG/2-TRLG. For detection of green fluorescence by 2-NBDLG, PMT2 (called green channel, the same shall apply hereinafter) was used in a wavelength detection range of 500-580 nm. For detection of red fluorescence by 2-TRLG, PMT3 (called red channel, the same shall apply hereinafter) was used in a wavelength detection range of 580-740 nm. […]

The subject of experiment [3] is mouse insulinoma cells (MIN6). Nature of the experiment: Uptake into MIN6 cells and influence of glucose transport inhibitors (fluorescent microplate reader). The procedure: Cryopreserved MIN6 cells (cells donated from Professor Miyazaki Junichi of Osaka University and cultured 5 to 8 passages) were subjected to culture according to an ordinary method, and cultures at 7 to 9 passages were used in experiments.
NaCl 129.0 mM, KCl 4.75 mM, KH2 PO4 1.19 mM, MgSO4.7H2O 1.19 mM, CaCl2.2H2O 1.0 mM, NaHCO3 5.02 mM, D-Glucose 5.6 mM, HEPES 10 mM (pH was adjusted to 7.35 with 1M NaOH). For inhibiting entrance and elimination of a fluorescently labeled glucose via gap junction/hemichannel, 0.1 mM Carbenoxolone (SIGMA #C4790) was added. This KRB solution was used as a solution for preparing a 2-PBLG solution.
2-PBDG and 2-PBLG were charged into wells at the third column and the fifth column, respectively, using a 8-channel pipette. Before administration, the autofluorescence of each well was measured beforehand by a fluorescent micro plate reader (Flex Station, manufactured by Molecular Device). The measurement conditions include Bottom Read, Ex 401 nm, Em 453 nm, Cut off 420 nm, Averaging 3, and high sensitivity of Photomultiplier. In the measurement method, Well Scan Mode was used. In Well Scan Mode, the inside of one well was divided into 9 regions of interest (diameter: 1.5 mm) and measurement was performed each independently.
Next, in wells (3C, 3E, 3G) for measuring the effect of a glucose transport inhibitor phloretin, phloretin (final 150 μM) was administered beforehand from 5 minutes prior to administration of 2-PBDG, while KRB was added to other wells (3B, 3D, 3F). Similar operation was also conducted on the fifth column where 2-PBLG was to be administered. 2-PBDG and 2-PBLG were administrated at 37° C. for 10 minutes.
After completion of administration, a diluting operation of the fluorescence solution in the well using 300 μL of a KRB solution was repeated set times each for 30 seconds. The repetition time was determined so that the fluorescence intensity detected by wells of A-th row and H-th row set as a control group was equivalent to the fluorescence intensity of a blank well containing no cell, and complete washout was confirmed in every experiment. In the case of 2-PBDG and 2-PBLG, this washout process needed 8 minutes, thus, measurement of fluorescence after administration was carried out 9 minutes after.
According to this method, even if cells having undergone a loss of the plasma membrane contacted 2-PBDG and 2-PBLG and once took up these compounds into themselves, it is judged that contribution of the increase in the fluorescence intensity to the whole observation area was ignorable level since these compounds had already been washed out of the cells when performing the measurement. This was supported by a pharmacological inhibition experiment separately in which the increase in the fluorescence intensity almost completely disappeared in the presence of an inhibitor. The above-described method was conducted in the same manner also when other inhibitor, for example, cytochalasin B (10 μM) was added.
The change of fluorescence intensity by administration of a D-glucose derivative (2-PBDG), an L-glucose derivative (2-PBLG) and PB—NH2 prepared by amidating Pacific Blue (PB) chromophore group to MIN6 cells on day of 10 of culture and the effect by a glucose transport inhibitor were confirmed in the same manner as in Example 4. PB—NH2 has the following structure (Ex max. 402 nm, Em max. 451 nm).
An experiment was conducted in the same manner as in Example 4.
The experiment was carried out 3 times independently, and the same results were obtained in all cases. In the experiment of administration of 2-PBDM, excitation occurred at a maximum excitation light wavelength of 404 nm and fluorescence was acquired at a maximum emission wavelength of 453 nm.

The mark [4] stands for this setting: 100 μM with 20 μM 2-TRLG, 37° C.
The mark [5] stands for this setting: 100 μM derivative, phloretin 150 μM, MIN6 day 10.

Turning to `O=C(NC1C(O)OC(CO)[C@@H](O)C1O)c1cc2ccc(O)cc2oc1=O` (stereo partly drawn) [2-HCDG, 2-Deoxy-2-((7-hydroxycoumarin-3-yl)carboxamido)-D-glucose], the “increase in fluorescence intensity in the neuron before and after administration” value in experiment [1] (setting [4]) was “no increase in the fluorescence intensity is detected”.

Take `COc1ccc2c(CC(=O)N[C@@H](C=O)[C@@H](O)[C@H](O)[C@H](O)CO)cc(=O)oc2c1` [2-MCDG, 2-Deoxy-2-(2-(7-methoxycoumarin-4-yl)acetamido)-D-glucose]: the “increase in fluorescence intensity in the neuron before and after administration” value in experiment [1] (setting [4]) was “not recognized”.

Take `O=[N+]([O-])c1ccc(NC2C(O)OC(CO)[C@H](O)C2O)c2nonc12` (stereo partly drawn) [2-NBDLG, 2-[N-(7-nitrobenz-2-oxa-1,3-diazol-4-yl)amino]-2-deoxy-L-glucose, reference compound]: the “fluorescence of cells in the cancer cell cluster 8 minutes after completion of administration” value in experiment [2] was “difficult to specify these cells only by the fluorescence imaging by 2-NBDLG”.

For `O=C(NC1C(O)OC(CO)[C@@H](O)C1O)c1cc2cc(F)c(O)c(F)c2oc1=O` (stereo partly drawn) [2-PBDG, 2-Deoxy-2-((6,8-difluoro-7-hydroxycoumarin-3-yl)carboxamido)-D-glucose], the “intracellular fluorescence intensity in Blue channel as compared with that before administration” value in experiment [1] (100 μM with 20 μM 2-TRLG, 37° C., 5 minutes, image 4 minutes after initiation of washout) was “increased excepting nucleus”. The “persistence of intracellular blue fluorescence after washout” value in experiment [1] (images 8 and 20 minutes after initiation of washout) is recorded as “not easily diminished”. Further, in experiment [3] (100 μM derivative, 150 μM phloretin, MIN6 day 10, increase without phloretin as reference), the “decreased value of fluorescence intensity owing to phloretin (average)” value was determined as 22.4%. Besides, the “effect of cytochalasin B on increase in fluorescence intensity” value in experiment [3] (100 μM derivative, cytochalasin B 10 μM, MIN6 day 10) is “did not show a significant inhibitory effect”. Also, the “fluorescence intensity after administration as compared with that before administration” value in experiment [3] (100 μM, MIN6 on day 10 of culture, Ex 401 nm, Em 453 nm) is “increases significantly”.

For the compound `O=C(NC1C(O)OC(CO)[C@@H](O)C1O)c1cc2cc(F)c(O)c(F)c2oc1=O` (stereo partly drawn) [2-PBDM, 2-Deoxy-2-((6,8-difluoro-7-hydroxycoumarin-3-yl)carboxamido)-D-mannose], the “effect of phloretin on increase in fluorescence intensity (in words)” value in experiment [3] (setting [5]) was “slight but significant inhibitory effect”.

In the case of `NC(=O)c1cc2cc(F)c(O)c(F)c2oc1=O` [PB—NH2, reference compound], the “effect of phloretin on increase in fluorescence intensity (in words)” value in experiment [3] (setting [5]) is reported as “remarkably promoted”. Moreover, the “increase in the fluorescence with phloretin compared to when only PB—NH2 is administrated” value in experiment [3] (100 μM, phloretin 150 μM, n=3 experiments) stood at 384.1±24.2%. Besides, the “increase in fluorescence intensity compared with that of 2-PBLG” value in experiment [3] (100 μM, same culture plate, MIN6 day 10) is “significantly larger”.

Values taken from US10288604B2, “Method for imaging cell using fluorescence-labeled sugar derivative having coumarin derivative bound thereto, and imaging agent” (HIROSAKI UNIVERSITY, priority 2012, dated 2019).
